Assay [1] deals with human V2 receptor (Homo sapiens (Human), UniProt P30518). Put plainly: Cellular in vitro assay for determining vasopressin receptor activity (V2, CRE-luciferase). To be noted: CHO cell line transfected with human V2 receptor; [Arg8]-vasopressin at EC50 concentration; read-out: IC50 hV2. The format is cell-based.
Assay [2] addresses human V1a receptor (Homo sapiens (Human), UniProt P37288). Nature of the assay: Cellular in vitro assay for determining vasopressin receptor activity (V1a, aequorin luminescence). The format is cell-based. To be noted: for IC50: CHO cell line transfected with human V1a receptor, [Arg8]-vasopressin at EC50 concentration, read-out: IC50 hV1a; for ratio IC50 hV2/hV1a: selectivity, IC50 hV2 divided by IC50 hV1a.

Sequence of human V1a receptor (P37288 whole entry): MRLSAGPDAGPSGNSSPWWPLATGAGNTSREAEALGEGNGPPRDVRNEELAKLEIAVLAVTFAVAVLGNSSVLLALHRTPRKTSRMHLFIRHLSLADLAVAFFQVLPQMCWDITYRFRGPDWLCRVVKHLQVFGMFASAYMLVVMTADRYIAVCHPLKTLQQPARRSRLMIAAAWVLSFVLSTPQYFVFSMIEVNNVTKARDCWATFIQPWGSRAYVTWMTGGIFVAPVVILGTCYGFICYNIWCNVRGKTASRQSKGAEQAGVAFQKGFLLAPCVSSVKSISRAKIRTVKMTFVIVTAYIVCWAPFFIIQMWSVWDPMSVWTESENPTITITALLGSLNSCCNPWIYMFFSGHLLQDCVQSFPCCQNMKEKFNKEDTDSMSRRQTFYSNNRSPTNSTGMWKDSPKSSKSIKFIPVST
Sequence of human V2 receptor (P30518 whole entry): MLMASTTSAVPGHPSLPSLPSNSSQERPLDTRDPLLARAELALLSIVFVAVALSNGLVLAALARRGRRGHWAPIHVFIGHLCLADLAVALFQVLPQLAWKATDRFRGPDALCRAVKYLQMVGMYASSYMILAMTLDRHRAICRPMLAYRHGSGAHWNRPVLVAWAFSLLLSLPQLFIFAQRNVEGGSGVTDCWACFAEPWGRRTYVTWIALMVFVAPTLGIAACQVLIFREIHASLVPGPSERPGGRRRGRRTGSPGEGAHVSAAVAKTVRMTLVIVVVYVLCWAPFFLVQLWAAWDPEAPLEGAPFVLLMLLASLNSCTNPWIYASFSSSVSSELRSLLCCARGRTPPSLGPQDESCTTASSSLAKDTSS

For orientation: IC50 means the concentration needed to halve the response being measured. On to `Cl.O=C(NC(Cn1c(-c2ccc(Cl)cc2)nn(Cc2ncn(-c3ncccc3C(F)(F)F)n2)c1=O)C(F)(F)F)C1NCC1(F)F` (stereo not drawn) [Example 69, N-{3-[3-(4-Chlorophenyl)-5-oxo-1-({1-[3-(trifluoromethyl)pyridin-2-yl]-1H-1,2,4-triazol-3-yl}methyl)-1,5-dihydro-4H-1,2,4-triazol-4-yl]-1,1,1-trifluoropropan-2-yl}-3,3-difluoroazetidine-2-carboxamide], for which the IC50 in assay [1] stood at 0.101 µM; in assay [2], 0.00195 µM. For the same compound, in assay [2], the “ratio IC50 hV2/hV1a” value was determined as 51.8.
On the same counts, the results for `Cl.O=C(NC(Cn1c(-c2ccc(Cl)cc2)nn(Cc2ncn(-c3ncccc3C(F)(F)F)n2)c1=O)C(F)(F)F)[C@@H]1C[C@@H](F)CN1` (stereo partly drawn) [Example 70, N-{3-[3-(4-Chlorophenyl)-5-oxo-1-({1-[3-(trifluoromethyl)pyridin-2-yl]-1H-1,2,4-triazol-3-yl}methyl)-1,5-dihydro-4H-1,2,4-triazol-4-yl]-1,1,1-trifluoropropan-2-yl}-4-fluoro-L-prolinamide] are 0.445 µM, 0.00635 µM and 70.1.
For `Cl.O=C(NC(Cn1c(-c2ccc(Cl)cc2)nn(Cc2ncn(-c3ncccc3C(F)(F)F)n2)c1=O)C(F)(F)F)[C@@H]1C[C@H](F)CN1` (stereo partly drawn) [Example 71, N-{3-[3-(4-Chlorophenyl)-5-oxo-1-({1-[3-(trifluoromethyl)pyridin-2-yl]-1H-1,2,4-triazol-3-yl}methyl)-1,5-dihydro-4H-1,2,4-triazol-4-yl]-1,1,1-trifluoropropan-2-yl}-4-fluoro-L-prolinamide] the same measures were 0.275 µM, 0.0049 µM and 56.1.
